The text below walks through data of patent publication US20130189764A1, “SELECTIVE GROWTH MEDIA” (Oxide Limited, priority 2000, published 2013).

Values after ≈ are worked out from the molar mass of the structure shown.

One experiment relates to S. aureus ss aureus 2355. The experiment can be described thus: MIC in DMSal medium (Example 17). The experiment is classed as cell-based. The note with it: Staphylococcus aureus. The source says: (§1) Isoleucyl-AEP and sarcosyl-alanyl-AEP were compared to ala-AEP (all in DMSal medium) for the ability to selectively recover two clinically important pathogenic bacteria: Salmonella and Staphylococcus aureus.

The next experiment concerns S. aureus (MRSA) 934. Put plainly: MIC in DMSal medium (Example 17). The note with it: Staphylococcus aureus, MRSA. The format is cell-based.
Source text: as §1

Another experiment relates to S. aureus 198. The experiment can be described thus: MIC in DMSal medium (Example 17). The format is cell-based. Conditions: Staphylococcus aureus, 198.
Source text: as §1

Experiment [1] concerns Enterococcus faecalis 581. Put plainly: MIC in DMSal medium (Example 17). The experiment is classed as cell-based. The note with it: Enterococcus faecalis, 581.
Source text: as §1

The test system of a further experiment is K. pneumoniae CMCC 3077. Put plainly: growth on nutrient agar, mixed culture with B. subtilis (Example 8). The experiment is classed as cell-based, Klebsiella pneumoniae. The note with it: K. pneumoniae in mixed culture with B. subtilis, nutrient agar. The source says:
(§2) Example 6 was repeated, this time using a mixed culture of B. subtilis OCC 214 and K. pneumoniae CMCC 3077, in the presence of AEP or alaphosphin. The empty columns show the growth of B. subtilis, the shaded columns denote growth of K. pneumoniae.

The test system of experiment [2] is Staphylococcus aureus OCC 102. Put plainly: growth on nutrient agar streak plates, pure culture (Example 5). The experiment is classed as cell-based. Conditions: S. aureus OCC 102, nutrient agar, 0-10 mM tested. The text has this:
Example 1 was repeated using Staphylococcus aureus OCC 102 as the test organism.

For experiment [3], the system named is Enterococcus faecalis 640. Put plainly: MIC in DMSal medium (Example 17). The experiment is classed as cell-based. Conditions: Enterococcus faecalis, 640.
A further experiment has as its system Citrobacter freundii 370. The experiment can be described thus: MIC in DMSal medium (Example 17). The format is cell-based. The note with it: Citrobacter freundii, 370.
A further experiment concerns S. aureus OCC 102. The experiment can be described thus: growth on nutrient agar, mixed culture with E. faecalis (Example 7). Conditions: S. aureus in mixed culture with E. faecalis. The experiment is classed as cell-based, Staphylococcus aureus. The source says:
Example 6 was repeated, this time using a mixed culture of S. aureus OCC 102 and E. faecalis OCC 604, in the presence of AEP or alaphosphin. The empty columns represent growth of S. aureus, the shaded columns represent growth of E. faecalis. […] Thus alaphosphin could be used, when incorporated at an appropriate concentration in a medium, to inhibit growth of organisms such as Enterococci in samples whilst allowing Staphylococci to grow and be detected.

The test system of experiment [4] is Salmonella typhimurium OCC 1870. The experiment can be described thus: growth on nutrient agar streak plates, pure culture (Example 2). The experiment is classed as cell-based. Conditions: S. typhimurium OCC 1870, nutrient agar, 0-10 mM tested. The text has this: Example 1 was repeated, using Salmonella typhimurium OCC 1870 as the test organism. The results are shown in FIG. 3, which uses the same key as FIG. 2.

In the next experiment the test system is E. coli OCC 2129. Put plainly: Bioscreen growth, comparison with conventional selective agents (Example 12). The experiment is classed as cell-based, Escherichia coli. The note with it: 60 μg/ml alaphosphin. The procedure:
(§3) The following is an example to illustrate the beneficial lower toxic properties of the new selective agents towards the target microorganism, in this case Salmonella. Two selective agents, cefsulodin and novobiocin, as used conventionally in Salmonella isolation from foods (Humphrey and Whitehead, 1992 British Poultry Science 33, 761-768) were compared with alaphosphin. All were dissolved in deionised water, filter sterilised, and an amount of the solution added to either autoclaved Lab-Lemco broth+phosphate buffer (20 g/l; pH 6.0; ala-AEP) or Buffered Peptone Water (pH 6.8; cefsulodin and novobiocin) to give final concentrations of 66, 16.5 and 11 μg/ml respectively. [The different pH values reflect the different pH optima of the selective agents (ala-AEP was also subsequently used in BPW at pH 6.8 and similar results obtained)]. Volumes (300 μl) were then pipetted into the wells of Bioscreen microtitre plates and 30 μl quantities of 1 in 10,000 dilutions of overnight cultures of E. coli OCC 2129 and Salmonella typhimurium OCC 722, added. Plates were then covered, incubated at 37° C., and the opacity of the organism suspensions measured using a Bioscreen instrument.
(§4) Typical results are shown in FIGS. 17-19, which are graphs of optical density against time for S. typhimurium (circles) and E. coli (squares) in the presence (empty symbols) or absence (filled symbols) of 15 μg/ml cefsulodin (FIG. 17), 10 μg/ml novobiocin (FIG. 18) or 60 μg/ml alaphosphin (FIG. 19).

Experiment [5] has as its system Salmonella typhimurium OCC 722. Described as above. The experiment is classed as cell-based. The note with it: 60 μg/ml alaphosphin, Lab-Lemco broth + phosphate buffer pH 6.0. The protocol: as §3, §4
The subject of another experiment is B. subtilis OCC 214. Put plainly: growth on nutrient agar, mixed culture with K. pneumoniae (Example 8). The format is cell-based, Bacillus subtilis.
Source text: as §2

Experiment [6] deals with Klebsiella pneumoniae CMCC3077. Put plainly: total viable count in Nutrient Broth (Example 10). Conditions: 5 mM in Nutrient Broth, within a 4 hour period. The experiment is classed as cell-based. The protocol: Growth curve data on the activity of alaphosphin towards Klebsiella spp. was generated. Particular attention was paid to measuring the kinetics of inhibition in broth culture. The media used in this work were Buffered Peptone Water, Nutrient Broth and Tryptone Soya Agar. The media were prepared according to the manufacturer's instructions.
The selective agents, AEP (Cat. No. 06655) and alaphosphin (Cat. No. 05260), were supplied by Fluka. They were dissolved in water at 0.5M concentration, filter-sterilised, and 100 μl added to 10 ml of Nutrient Broth to give a final concentration in the test medium of 5 mM of AEP or alaphosphin respectively.
Klebsiella pneumnoniae CMCC3077 was chosen, as it is a food isolate and work had been carried out previously on this organism using alaphosphin and AEP (see preceding examples). The organism was inoculated into Nutrient Broth and incubated overnight at 37° C. […] The test media were incubated at 37° C., and sampled at hourly intervals. The cultures were serially diluted in Buffered Peptone Water and inoculated onto Tryptone Soya Agar. These plates were incubated overnight at 37° C. and the total viable count made the next day.
Typical results are shown in FIG. 15 which is a graph of total viable count (log10 cfu/ml) against time (hours).

Experiment [7] has as its system strains of Escherichia coli. Put plainly: Bioscreen growth in Lab-Lemco broth (Example 11), E. coli strains. The experiment is classed as cell-based. The note with it: 64 μg/ml, Lab-Lemco broth pH 5.7, 37° C., four E. coli strains. The procedure: Thus, Ala-AEP was dissolved in deionised water (7.0 mg/ml), filter sterilised, and an amount of the solution added to autoclaved Lab-Lemco broth (20 g/l; pH 5.7) to give a concentration of 70 μg/ml. Volumes (300 μl) of this solution were then pipetted into the wells of Bioscreen microtitre plates and 30 μl quantities of 1 in 10,000 dilutions of overnight cultures added (reducing the final alaphosphin concentration to 64 μg/m). Plates were then covered, incubated at 37° C., and the opacity of the organism suspensions measured using a Bioscreen instrument. Growth of the Salmonella strains was unaffected whereas the E. coli strains were all inhibited.
Typical results are shown in FIG. 16, which is a graph of Optical Density against time (hours). Growth of S. indiana OCC 2412 and S. worthington OCC 634 is denoted by crosses and circles respectively.

As usually defined, the MIC is the smallest concentration in the dilution series that meets the test's criterion for growth inhibition. The low end stands for greater potency, the high end for weaker potency. For `C[C@H](N)C(=O)N[C@@H](C)P(=O)(O)O` [alaphosphin, L-alanyl-L-1-aminoethylphosphonic acid], the MIC in the experiment on S. aureus ss aureus 2355 is 10 µg/mL (≈ 51 µM); with S. aureus (MRSA) 934 it was 25 µg/mL (≈ 127 µM); against S. aureus 198 it was 5 µg/mL (≈ 25.5 µM); in experiment [1], 10 µg/mL (≈ 51 µM); in [3], 10 µg/mL (≈ 51 µM); with Citrobacter freundii 370, 1 µg/mL (≈ 5.1 µM). Besides, the entries for the “concentration at which growth is completely inhibited” value (in the experiment on K. pneumoniae CMCC 3077; in experiment [2]; in [4]) were not below 2 mM, 10 mM and not below 5 mM, respectively. For the same compound, in the experiment on S. aureus OCC 102, the “concentration at which growth is inhibited” value is recorded as not below 10 mM. The “growth of E. coli” value with E. coli OCC 2129 is listed as “completely inhibited”. For the same compound, the “effect on growth of S. typhimurium” value in experiment [5] is “no significant difference”. In the experiment on B. subtilis OCC 214, the “sensitivity of growth (in words)” value is “insensitive”. In [6], the “reduction in the viable count” value is “two to three log reduction”. Moreover, the “growth (optical density) in presence of the agent” value in experiment [7] is given as “all inhibited”.
